In patent US20240217967A1, “INDOLINE DERIVATIVES AS DDRS INHIBITORS” (CHIESI FARMACEUTICI S.P.A., priority 2021, published 2024) one finds IC50 and Ki data, which are given here for 16 compounds.

Assay [1] concerns the target T1, DDR2 (Homo sapiens, UniProt Q16832).
T1 sequence (Q16832 22-855): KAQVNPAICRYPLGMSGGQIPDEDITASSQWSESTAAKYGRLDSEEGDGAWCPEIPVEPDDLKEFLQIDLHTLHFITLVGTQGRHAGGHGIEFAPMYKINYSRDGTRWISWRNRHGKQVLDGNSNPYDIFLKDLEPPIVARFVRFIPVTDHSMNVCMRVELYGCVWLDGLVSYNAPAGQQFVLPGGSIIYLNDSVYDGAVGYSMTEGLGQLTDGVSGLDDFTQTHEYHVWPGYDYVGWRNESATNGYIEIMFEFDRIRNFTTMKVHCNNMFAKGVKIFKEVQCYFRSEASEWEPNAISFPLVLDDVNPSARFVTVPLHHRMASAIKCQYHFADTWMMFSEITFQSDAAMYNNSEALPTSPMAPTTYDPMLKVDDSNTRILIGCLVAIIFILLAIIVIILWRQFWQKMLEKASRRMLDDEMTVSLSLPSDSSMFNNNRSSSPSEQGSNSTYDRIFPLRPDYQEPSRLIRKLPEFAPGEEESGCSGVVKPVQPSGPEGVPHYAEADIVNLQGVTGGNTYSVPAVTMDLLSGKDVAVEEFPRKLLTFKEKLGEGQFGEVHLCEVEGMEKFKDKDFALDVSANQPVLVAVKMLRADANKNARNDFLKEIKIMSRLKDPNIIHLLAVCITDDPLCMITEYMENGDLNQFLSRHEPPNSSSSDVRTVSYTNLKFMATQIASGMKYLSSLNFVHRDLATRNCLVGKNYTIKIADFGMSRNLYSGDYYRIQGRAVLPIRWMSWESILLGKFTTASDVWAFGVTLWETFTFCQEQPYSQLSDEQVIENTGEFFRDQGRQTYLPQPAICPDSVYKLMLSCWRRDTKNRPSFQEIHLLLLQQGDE
Description: DDR2 cell based assay (phospho-ELISA in HEK293T-DDR2 recombinant cells, collagen II stimulation). The settings on record: bovine Type II Collagen stimulation. On the procedure:
The inhibition of DDR2 phosphorylation by compounds was evaluated in HEK293T-DDR2 recombinant cells by phospho-ELISA assay. Briefly, HEK293T-DDR2 cells were seeded in poly-D-lysine-coated 24-well plates at a density of 250.000 cells/well and incubated for 1.5 hours at 37° C. and 5% CO2 in DMEM+10% FBS. After that, the medium was changed to serum-free DMEM and cells were incubated for 3 hours. Then. test compounds were added at different concentrations 30 minutes before stimulation with bovine Type II Collagen at 50 μg/ml for further 3 hours. For DDR2 phospho-ELISA assay (DuoSet IC Human Phospho-DDR2; R&D Systems), protein extracts were obtained by adding 60 μl/well of lysis buffer prepared according to the manufacturer's instructions. Protein concentration in the samples was determined by BCA assay and the levels of phospho-DDR2 were determined following R&D Systems indications. Raw data were normalized to maximal inhibition control (0% for normalization) and positive control (100% for normalization; cells treated with […] collagen II) and IC50 parameters were calculated in GraphPad Prism 8.0 software, using sigmoidal dose-response curve fitting with variable slope.
A general note: An ELISA detects its analyte on a solid surface through an enzyme-linked reagent.

Assay [2] addresses T1, DDR2. Briefly: DDR2 LanthaScreen Europium Kinase Binding assay. The following applies: binding affinity; IC50 converted in Ki using Cheng-Prusoff; read-out: Ki DDR2. In a few lines:
(§1)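 Binding by TR-FRET tracer displacement: compounds incubated 1 h at room temperature with 5 nM DDR1 plus 20 nM Kinase Tracer 178, or 5 nM DDR2 plus 10 nM tracer, and 2 nM Eu anti-GST antibody in pH 7.5 HEPES/MgCl2/EGTA/BRIJ35 buffer. 665/615 nm ratio gave four-parameter IC50, converted to Ki via Cheng-Prusoff.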
(Time-resolved FRET reads energy transfer from a long-lived donor to a nearby acceptor.)

Assay [3] has as its target T2, DDR1 (Homo sapiens, UniProt Q08345). Briefly: DDR1 cell based assay (PathHunter U2OS DDR1, collagen II stimulation). The following applies: U2OS-DDR1 cells, bovine Type II Collagen stimulation. In a few lines: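 Receptor activation measured by enzyme-fragment complementation luminescence in engineered U2OS cells. Compound added 30 min before overnight challenge with 20 μg/ml bovine collagen II; data scaled between vehicle and collagen-stimulated controls, IC50 derived by four-parameter variable-slope fitting.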

Assay [4] concerns the target T2, DDR1. Briefly: DDR1 LanthaScreen Europium Kinase Binding assay. The following applies: binding affinity; IC50 converted in Ki using Cheng-Prusoff; read-out: Ki DDR1. The method, boiled down: as §1

Structures are written as SMILES.

T2 sequence (Q08345 19-913): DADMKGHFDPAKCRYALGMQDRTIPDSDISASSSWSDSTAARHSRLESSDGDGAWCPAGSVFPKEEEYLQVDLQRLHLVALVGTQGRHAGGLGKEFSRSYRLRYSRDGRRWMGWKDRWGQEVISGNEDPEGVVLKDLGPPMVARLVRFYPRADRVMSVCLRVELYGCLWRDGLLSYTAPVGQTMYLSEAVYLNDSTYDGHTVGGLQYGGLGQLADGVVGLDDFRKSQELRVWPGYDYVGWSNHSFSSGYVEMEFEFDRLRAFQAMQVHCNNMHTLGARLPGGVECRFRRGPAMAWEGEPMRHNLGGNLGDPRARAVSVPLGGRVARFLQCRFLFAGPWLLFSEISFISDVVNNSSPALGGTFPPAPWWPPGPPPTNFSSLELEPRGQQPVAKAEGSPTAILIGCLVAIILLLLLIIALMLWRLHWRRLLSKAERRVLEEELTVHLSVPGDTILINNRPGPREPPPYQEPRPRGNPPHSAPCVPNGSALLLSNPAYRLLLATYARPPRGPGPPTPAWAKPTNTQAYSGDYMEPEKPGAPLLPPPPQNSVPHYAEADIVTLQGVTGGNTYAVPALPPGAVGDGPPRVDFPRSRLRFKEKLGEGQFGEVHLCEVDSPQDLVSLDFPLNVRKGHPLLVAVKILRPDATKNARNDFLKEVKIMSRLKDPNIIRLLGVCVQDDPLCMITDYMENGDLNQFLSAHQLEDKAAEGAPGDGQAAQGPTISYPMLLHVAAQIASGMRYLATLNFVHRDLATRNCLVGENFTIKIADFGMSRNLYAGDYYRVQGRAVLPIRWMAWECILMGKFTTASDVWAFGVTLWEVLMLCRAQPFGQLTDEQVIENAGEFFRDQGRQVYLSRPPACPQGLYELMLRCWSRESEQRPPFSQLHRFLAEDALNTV

For `Cc1cn(-c2cc(C(=O)Nc3ccc4c(c3)N(Cc3cnc5cnccn35)CC4)cc(C(F)(F)F)c2)cn1` [Example 22, N-(1-(imidazo[1,2-a]pyrazin-3-ylmethyl)indolin-6-yl)-3-(4-methyl-1H-imidazol-1-yl)-5-(trifluoromethyl)benzamide], the IC50 was 25 to 50 nM at DDR2 [1] and less than 25 nM against DDR1 [3]. For the same compound, the Ki on DDR2 [2] and at DDR1 [4] was less than 25 nM throughout.
As for `Cc1cn(-c2cc(NC(=O)c3ccc4c(c3)N(C(=O)c3cnc5[nH]ncc5c3)CC4C)cc(C(F)(F)F)c2)cn1` (stereo not shown) [Example 28, 3-methyl-N-(3-(4-methyl-1H-imidazol-1-yl)-5-(trifluoromethyl)phenyl)-1-(1H-pyrazolo[3,4-b]pyridine-5-carbonyl)indoline-6-carboxamide], the figures for the IC50 on DDR2 [1] and against DDR1 [3] were 25 to 50 nM and less than 25 nM, respectively. Besides, the Ki on DDR2 [2] is 25 to 50 nM; on DDR1 [4], less than 25 nM.
Take `Cc1cn(-c2cc(NC(=O)c3ccc4c(c3)N(Cc3cnc5[nH]ncc5c3)CC4)cc(C(F)(F)F)c2)cn1` [Example 6, 1-((1H-pyrazolo[3,4-b]pyridin-5-yl)methyl)-N-(3-(4-methyl-1H-imidazol-1-yl)-5-(trifluoromethyl)phenyl)indoline-6-carboxamide]: the IC50 is 50 to 80 nM on DDR2 [1] and less than 25 nM on DDR1 [3]. The Ki at DDR2 [2] and on DDR1 [4] was less than 25 nM in each case.
Turning to `Cc1n[nH]c2ncc(CN3CCc4ccc(C(=O)Nc5ccc(CN(C)C)c(C(F)(F)F)c5)cc43)cc12` [Example 69, N-(4-((dimethylamino)methyl)-3-(trifluoromethyl)phenyl)-1-((3-methyl-1H-pyrazolo[3,4-b]pyridin-5-yl)methyl)indoline-6-carboxamide], the half-maximal inhibitory concentration (IC50) on DDR2 [1] and at DDR1 [3] was less than 25 nM throughout. The Ki on DDR2 [2] and at DDR1 [4] was less than 25 nM in each case.
Take `CN1CCN(Cc2ccc(NC(=O)c3ccc4c(c3)N(Cc3cnc5[nH]ncc5c3)CC4)cc2C(F)(F)F)CC1` [Example 75]: the IC50 on DDR2 [1] and against DDR1 [3] was less than 25 nM each time. Also, the inhibition constant Ki on DDR2 [2] and on DDR1 [4] was less than 25 nM in each case.
On to `Cc1n[nH]c2ncc(CN3CCc4ccc(C(=O)Nc5ccc(CN6CCN(C)CC6)c(C(F)(F)F)c5)cc43)cc12` [Example 65, 1-((3-methyl-1H-pyrazolo[3,4-b]pyridin-5-yl)methyl)-N-(4-((4-methylpiperazin-1-yl)methyl)-3-(trifluoromethyl)phenyl)indoline-6-carboxamide], for which the figures for the half-inhibitory concentration (IC50) at DDR2 [1] and on DDR1 [3] were 50 to 80 nM and less than 25 nM, respectively. Also, the Ki on DDR2 [2] and on DDR1 [4] was less than 25 nM throughout.
Consider `CN1CCN(Cc2ccc(NC(=O)c3ccc4c(c3)N(Cc3cnc5[nH]nc(N6CCOCC6)c5c3)CC4)cc2C(F)(F)F)CC1` [Example 89, N-[4-[(4-methylpiperazin-1-yl)methyl]-3-(trifluoromethyl)phenyl]-1-[(3-morpholino-1H-pyrazolo[3,4-b]pyridin-5-yl)methyl]indoline-6-carboxamide], for which the results for the IC50 at DDR2 [1] and on DDR1 [3] were 50 to 80 nM and less than 25 nM, respectively. Further, the Ki on DDR2 [2] and at DDR1 [4] was less than 25 nM each time.
`Cc1cn(-c2cc(NC(=O)c3ccc4c(c3)N(Cc3cnc5[nH]nc(C)c5c3)CC4)cc(C(F)(F)F)c2)cn1` [Example 7, N-(3-(4-methyl-1H-imidazol-1-yl)-5-(trifluoromethyl)phenyl)-1-((3-methyl-1H-pyrazolo[3,4-b]pyridin-5-yl)methyl)indoline-6-carboxamide]: the IC50 on DDR2 [1] was 25 to 50 nM; on DDR1 [3], less than 25 nM. The Ki at DDR2 [2] and on DDR1 [4] was less than 25 nM each time.
On to `Cc1cn(-c2cc(NC(=O)c3ccc4c(c3)N(Cc3cnc5cnccn35)CC4)cc(C(F)(F)F)c2)cn1` [Example 3, 1-(imidazo[1,2-a]pyrazin-3-ylmethyl)-N-(3-(4-methyl-1H-imidazol-1-yl)-5-(trifluoromethyl)phenyl)indoline-6-carboxamide], for which the figures for the IC50 on DDR2 [1] and at DDR1 [3] were 50 to 80 nM and less than 25 nM, respectively. Moreover, the Ki on DDR2 [2] and on DDR1 [4] was less than 25 nM in each case.
Regarding `Cc1cn(-c2cc(C(=O)Nc3ccc4c(c3)N(C(=O)c3cnc5[nH]ncc5c3)CC4)cc(C(F)(F)F)c2)cn1` [Example 21, N-(1-(1H-pyrazolo[3,4-b]pyridine-5-carbonyl)indolin-6-yl)-3-(4-methyl-1H-imidazol-1-yl)-5-(trifluoromethyl)benzamide], the IC50 on DDR2 [1] was less than 25 nM; against DDR1 [3], 25 to 50 nM. Also, the Ki on DDR2 [2] and on DDR1 [4] was less than 25 nM throughout.
Take `O=C(Nc1cccc(OC(F)(F)F)c1)c1ccc2c(c1)N(Cc1cnc3[nH]ncc3c1)CC2` [Example 37, 1-((1H-pyrazolo[3,4-b]pyridin-5-yl)methyl)-N-(3-(trifluoromethoxy)phenyl)indoline-6-carboxamide]: the IC50 at DDR2 [1] and on DDR1 [3] was less than 25 nM each time. Also, the Ki on DDR2 [2] and at DDR1 [4] was less than 25 nM each time.
On to `CC1CN(Cc2cnc3cnccn23)c2cc(C(=O)Nc3cccc(C(F)(F)F)c3)ccc21` (stereo not shown) [Example 31, 1-(imidazo[1,2-a]pyrazin-3-ylmethyl)-3-methyl-N-(3-(trifluoromethyl)phenyl)indoline-6-carboxamide], for which the figures for the IC50 on DDR2 [1] and against DDR1 [3] were 50 to 80 nM and less than 25 nM, respectively. Also, the Ki on DDR2 [2] and on DDR1 [4] was less than 25 nM in each case.
With `O=C(Nc1cccc(C(F)(F)F)c1)c1ccc2c(c1)N(Cc1cnc3[nH]ncc3c1)CC2` [Example 35, 1-((1H-pyrazolo[3,4-b]pyridin-5-yl)methyl)-N-(3-(trifluoromethyl)phenyl)indoline-6-carboxamide], the IC50 at DDR2 [1] and against DDR1 [3] was less than 25 nM throughout. For the same compound, the Ki on DDR2 [2] and at DDR1 [4] was less than 25 nM throughout.
`O=C(Nc1cc(F)cc(C(F)(F)F)c1)c1ccc2c(c1)N(Cc1cnc3ccccn13)CC2` [Example 59, N-(3-fluoro-5-(trifluoromethyl)phenyl)-1-(imidazo[1,2-a]pyridin-3-ylmethyl)indoline-6-carboxamide]: the values for the IC50 at DDR2 [1] and on DDR1 [3] were 50 to 80 nM and less than 25 nM, respectively. Moreover, the Ki at DDR2 [2] and on DDR1 [4] was less than 25 nM each time.
`CC1CN(Cc2cnc3[nH]ncc3c2)c2cc(C(=O)Nc3cccc(C(F)(F)F)c3)ccc21` (single isomer, unassigned) [Example 34, 1-((1H-pyrazolo[3,4-b]pyridin-5-yl)methyl)-3-methyl-N-(3-(trifluoromethyl)phenyl)indoline-6-carboxamide]: the IC50 at DDR2 [1] is 25 to 50 nM; against DDR1 [3], less than 25 nM. Moreover, the Ki at DDR2 [2] and at DDR1 [4] was less than 25 nM each time.
As for `Cc1cn(-c2cc(NC(=O)c3ccc4c(c3)N(Cc3cnc5cnccn35)CC4C)cc(C(F)(F)F)c2)cn1` (single isomer, unassigned) [Example 27, 1-(imidazo[1,2-a]pyrazin-3-ylmethyl)-3-methyl-N-(3-(4-methyl-1H-imidazol-1-yl)-5-(trifluoromethyl)phenyl)indoline-6-carboxamide], the IC50 at DDR2 [1] and against DDR1 [3] was less than 25 nM each time. Besides, the Ki on DDR2 [2] and on DDR1 [4] was less than 25 nM each time.

What is called IC50 is the concentration needed to halve the response being measured. For orientation: Ki means the dissociation constant of the complex between target and ligand, obtained from inhibition or displacement.
